Results as given in US8691837B2, “Substituted imidazo ring systems and methods” (3M Innovative Properties Company, priority 2003, dated 2014).
Where a name gives a salt, the structure may show the parent alone.

Row | melting point | Structure (SMILES)
1 | 195 to 196 °C | CCCc1nc2c(N)nc3ccccc3c2n1CCCCCCCCCCCC(=O)c1ccccc1 (as salt: hydrochloride) [Example 16, 12-(4-Amino-2-propyl-1H-imidazo[4,5-c]quinolin-1-yl)-1-phenyldodecan-1-one hydrochloride]
2 | 150 to 152 °C | CCOCc1nc2c(N)nc3ccccc3c2n1CCCC1(C)OCCO1 [Example 10, 2-Ethoxymethyl-1-[3-(2-methyl-[1,3]dioxolan-2-yl)propyl]-1H-imidazo[4,5-c]quinolin-4-amine]
3 | 176 to 177 °C | CCCc1nc2c(N)nc3ccccc3c2n1CCCC(C)=O [Example 13, 5-(4-Amino-2-propyl-1H-imidazo[4,5-c]quinolin-1-yl)pentan-2-one]
4 | 148 to 150 °C | CCCc1nc2c(N)nc3ccccc3c2n1CC(OCC)OCC [Example 29, 1-(2,2-Diethoxyethyl)-2-propyl-1H-imidazo[4,5-c]quinolin-4-amine]
5 | 163 to 165 °C | Nc1nc2ccccc2c2c1ncn2CCCCCC(=O)c1ccccc1 [Example 5, 6-(4-Amino-1H-imidazo[4,5-c]quinolin-1-yl)-1-phenylhexan-1-one]
6 | 206 to 208 °C | CCc1nc2c(N)nc3ccccc3c2n1CCCC(C)=O [Example 12, 5-(4-Amino-2-ethyl-1H-imidazo[4,5-c]quinolin-1-yl)pentan-2-one]
7 | 154 to 156 °C | CCCc1nc2c(N)nc3ccccc3c2n1CCCC(=O)OCC [Example 27, Ethyl 4-(4-amino-2-propyl-1H-imidazo[4,5-c]quinolin-1-yl)butyrate]
8 | 129 to 131 °C | CCOCc1nc2c(N)nc3ccccc3c2n1CCCC(=O)OCC [Example 34, Ethyl 4-[4-amino-2-(ethoxymethyl)-1H-imidazo[4,5-c]quinolin-1-yl]butanoate]
9 | 173 to 176 °C | CCCCc1nc2c(N)nc3ccccc3c2n1CCCC(C)=O [Example 2, 5-(4-Amino-2-butyl-1H-imidazo[4,5-c]quinolin-1-yl)pentan-2-one]
10 | 111 to 113 °C | CCCCCCC(=O)CCCn1c(CCC)nc2c(N)nc3ccccc3c21 [Example 18, 1-(4-Amino-2-propyl-1H-imidazo[4,5-c]quinolin-1-yl)decan-4-one]
11 | 149 to 151 °C | CCCCc1nc2c(N)nc3ccccc3c2n1CCCCCC(=O)c1ccccc1 [Example 4, 6-(4-Amino-2-butyl-1H-imidazo[4,5-c]quinolin-1-yl)-1-phenylhexan-1-one]
12 | 136 to 138 °C | CCCc1nc2c(N)nc3ccccc3c2n1CCCC(=O)CC(C)C [Example 17, 1-(4-Amino-2-propyl-1H-imidazo[4,5-c]quinolin-1-yl)-6-methylheptan-4-one]
13 | 150 to 151 °C | CCCc1nc2c(N)nc3ccccc3c2n1CCCCC(=O)N(C)OC [Example 36, 5-(4-Amino-2-propyl-1H-imidazo[4,5-c]quinolin-1-yl)-N-methoxy-N-methylpentanamide]
14 | 223 to 225 °C | CC(=O)CC(C)(C)Cn1c(C)nc2c(N)nc3ccccc3c21 [Example 24, 5-(4-Amino-2-methyl-1H-imidazo[4,5-c]quinolin-1-yl)-4,4-dimethylpentan-2-one]
15 | 163 to 165 °C | CCCc1nc2c(N)nc3ccccc3c2n1CCCC(=O)N(C)OC [Example 20, 4-(4-Amino-2-propyl-1H-imidazo[4,5-c]quinolin-1-yl)-N-methoxy-N-methylbutyramide]
16 | 209 to 211 °C | Cc1nc2c(N)nc3ccccc3c2n1CC(C)(C)CC1(C)OCCO1 [Example 22, 1-[2,2-Dimethyl-3-(2-methyl-[1,3]dioxolan-2-yl)propyl]-2-methyl-1H-imidazo[4,5-c]quinolin-4-amine]
17 | 148 to 150 °C | CCCc1nc2c(N)nc3ccccc3c2n1CCC(OCC)OCC [Example 30, 1-(3,3-Diethoxypropyl)-2-propyl-1H-imidazo[4,5-c]quinolin-4-amine]
18 | 187 to 188 °C | CCOCc1nc2c(N)nc3ccccc3c2n1CC(=O)CC [Example 37, 1-[4-Amino-2-(ethoxymethyl)-1H-imidazo[4,5-c]quinolin-1-yl]butan-2-one]

Row | melting point | Structure (SMILES)
19 | 163 to 165 °C | CCOCc1nc2c(N)nc3ccccc3c2n1CCCC(=O)N(C)OC [Example 35, 4-[4-Amino-2-(ethoxymethyl)-1H-imidazo[4,5-c]quinolin-1-yl]-N-methoxy-N-methylbutanamide]
20 | 112 to 113 °C | CCCc1nc2c(N)nc3ccccc3c2n1CCCCCC(=O)OCC [Example 28, Ethyl 6-(4-amino-2-propyl-1H-imidazo[4,5-c]quinolin-1-yl)hexanoate]
21 | 169 to 171.5 °C | CCCCc1nc2c(N)nc3ccccc3c2n1CCCC1(C)OCCO1 [Example 9, 2-Butyl-1-[3-(2-methyl-[1,3]dioxolan-2-yl)propyl]-1H-imidazo[4,5-c]quinolin-4-amine]
22 | 178 to 180 °C | CCCc1nc2c(N)nc3ccccc3c2n1CC(C)(C)CC(C)=O [Example 25, 5-(4-Amino-2-propyl-1H-imidazo[4,5-c]quinolin-1-yl)-4,4-dimethylpentan-2-one]
23 | 186 to 188 °C | CCCc1nc2c(N)nc3ccccc3c2n1CC(C)(C)CC1(C)OCCO1 [Example 23, 1-[2,2-Dimethyl-3-(2-methyl-[1,3]dioxolan-2-yl)propyl]-2-propyl-1H-imidazo[4,5-c]quinolin-4-amine]
24 | 194 to 196 °C | CC(=O)CCCn1c(C)nc2c(N)nc3ccccc3c21 [Example 11, 5-(4-Amino-2-methyl-1H-imidazo[4,5-c]quinolin-1-yl)pentan-2-one]
25 | 184 to 186 °C | CCCc1nc2c(N)nc3ccccc3c2n1CCCC1(C)OCCO1 [Example 8, 1-[3-(2-Methyl-[1,3]dioxolan-2-yl)propyl]-2-propyl-1H-imidazo[4,5-c]quinolin-4-amine]
26 | 195 to 196.5 °C | CCc1nc2c(N)nc3ccccc3c2n1CCCC1(C)OCCO1 [Example 7, 2-Ethyl-1-[3-(2-methyl-[1,3]dioxolan-2-yl)propyl]-1H-imidazo[4,5-c]quinolin-4-amine]
27 | 193 to 195 °C | Cc1nc2c(N)nc3ccccc3c2n1CCCC1(C)OCCO1 [Example 6, 2-Methyl-1-[3-(2-methyl-[1,3]dioxolan-2-yl)propyl]-1H-imidazo[4,5-c]quinolin-4-amine]
28 | 156 to 157 °C | CCCc1nc2c(N)nc3ccccc3c2n1CCC(=O)OCC [Example 26, Ethyl 3-(4-amino-2-propyl-1H-imidazo[4,5-c]quinolin-1-yl)propionate]
29 | 153 to 155 °C | CC(C)(Cn1cnc2c(N)nc3ccccc3c21)CC1(C)OCCO1 [Example 31, 1-[2,2-Dimethyl-3-(2-methyl[1,3]dioxolan-2-yl)propyl]-1H-imidazo[4,5-c]quinolin-4-amine]
30 | 148.5 to 149.5 °C | CCCc1nc2c(N)nc(C)c(C)c2n1CCCC(C)=O [Example 33, 5-(4-Amino-6,7-dimethyl-2-propyl-1H-imidazo[4,5-c]pyridin-1-yl)pentan-2-one]
31 | 134 to 135 °C | CCCc1nc2c(N)nc3ccccc3c2n1CCCCCC(=O)N(C)OC [Example 19, 6-(4-Amino-2-propyl-1H-imidazo[4,5-c]quinolin-1-yl)-N-methoxy-N-methylhexanamide]
32 | 173 to 175 °C | CCOCc1nc2c(N)nc3ccccc3c2n1CCCC(C)=O [Example 14, 5-(4-Amino-2-ethoxymethyl-1H-imidazo[4,5-c]quinolin-1-yl)pentan-2-one]
33 | 161 to 163 °C | CCCc1nc2c(N)nc3ccccc3c2n1CCCCCC(C)=O [Example 15, 7-(4-Amino-2-propyl-1H-imidazo[4,5-c]quinolin-1-yl)heptan-2-one]
34 | 156 to 158 °C | CCCc1nc2c(N)nc3ccccc3c2n1CCCCCCCCCCCC(=O)N(C)OC (as salt: hydrochloride) [Example 21, 12-(4-Amino-2-propyl-1H-imidazo[4,5-c]quinolin-1-yl)-N-methoxy-N-methyldodecanamide hydrochloride]
35 | 214 to 216 °C | CC(=O)CC(C)(C)Cn1cnc2c(N)nc3ccccc3c21 [Example 32, 5-(4-Amino-1H-imidazo[4,5-c]quinolin-1-yl)-4,4-dimethylpentan-2-one]
